For seven compounds, EC50 results are on record in patent publication US9067977B2, “Peptides derivatized with A-B-C-D- and their therapeutical use” (Novo Nordisk A/S, priority 2007, dated 2015).

Molecules are shown by their SMILES. pEC50: −log10 of the molar value. Starred links: 1 amine or outer side, 2 acyl side, 3 side chain; linkers in the order of their positions; H or OH if unused. Non-standard residues stand in square brackets, D forms with d. Residues, ends and D or L forms follow the SMILES beside them. Groups on a side chain read outwards from the residue. *: point of attachment. X1 = O=C(CCCCCCCCCCCCCCCc1nnn[nH]1)NS(=O)(=O)CCCC(=O)*; PEG12 = NCCOCCOCCOCCOCCOCCOCCOCCOCCOCCOCCOCCOCCC(=O)O; C20 diacid = O=C(O)CCCCCCCCCCCCCCCCCCC(=O)*; C18 diacid = O=C(O)CCCCCCCCCCCCCCCCC(=O)*; d(βAsp) = O=C(O)[C@@H](CC(=O)[*:2])N[*:1]; γGlu = O=C(O)[C@H](CCC(=O)[*:2])N[*:1]; 2Nal = N[C@@H](Cc1ccc2ccccc2c1)C(=O)O; βAsp = O=C(O)[C@H](CC(=O)[*:2])N[*:1]; AEEA = NCCOCCOCC(=O)O; Aib = CC(C)(N)C(=O)O; Inp = O=C(O)C1CCNCC1; GABA = NCCCC(=O)O

The target in the first data set is human serum albumin (HSA) (Homo sapiens, UniProt P02768). The data set can be described thus: Albumin binding affinity, competition scintillation proximity assay.
human serum albumin (HSA), sequence (P02768 25-609): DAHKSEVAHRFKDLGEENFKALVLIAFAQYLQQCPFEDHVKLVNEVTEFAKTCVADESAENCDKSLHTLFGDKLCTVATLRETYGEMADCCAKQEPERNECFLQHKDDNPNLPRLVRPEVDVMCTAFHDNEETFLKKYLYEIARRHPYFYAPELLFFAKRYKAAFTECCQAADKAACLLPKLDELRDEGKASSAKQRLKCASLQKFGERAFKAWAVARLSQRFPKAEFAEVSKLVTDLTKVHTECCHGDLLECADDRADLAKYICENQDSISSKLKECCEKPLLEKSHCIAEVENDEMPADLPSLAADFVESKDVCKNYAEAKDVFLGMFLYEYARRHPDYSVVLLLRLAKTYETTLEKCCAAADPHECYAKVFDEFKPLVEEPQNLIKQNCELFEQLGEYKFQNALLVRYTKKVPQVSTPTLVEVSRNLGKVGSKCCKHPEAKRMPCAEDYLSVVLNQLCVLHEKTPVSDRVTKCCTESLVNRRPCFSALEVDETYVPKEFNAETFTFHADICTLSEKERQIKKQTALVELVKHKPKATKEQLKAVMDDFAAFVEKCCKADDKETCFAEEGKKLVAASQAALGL
Details: not given
Regarding `CC[C@H](C)[C@H](NC(=O)[C@H](Cc1ccccc1)NC(=O)[C@H](CCC(=O)O)NC(=O)[C@H](CCCNC(=N)N)NC(=O)[C@H](C)NC(=O)[C@H](C)NC(=O)[C@H](CCC(N)=O)NC(=O)[C@H](CCC(=O)O)NC(=O)[C@H](CCC(=O)O)NC(=O)[C@H](CC(C)C)NC(=O)[C@H](Cc1ccc(O)cc1)NC(=O)[C@H](CO)NC(=O)[C@H](CO)NC(=O)[C@@H](NC(=O)[C@H](CC(=O)O)NC(=O)[C@H](CO)NC(=O)[C@@H](NC(=O)[C@H](Cc1ccccc1)NC(=O)[C@@H](NC(=O)CNC(=O)[C@H](CCC(=O)O)NC(=O)C(C)(C)NC(=O)[C@@H](N)Cc1c[nH]cn1)[C@@H](C)O)[C@@H](C)O)C(C)C)C(=O)N[C@@H](C)C(=O)N[C@@H](CCCCNC(=O)COCCOCCNC(=O)COCCOCCNC(=O)C[C@H](NC(=O)C1CCN(C(=O)CCCCCCCCCCCCCCCCCCC(=O)O)CC1)C(=O)O)C(=O)N[C@@H](CC(C)C)C(=O)N[C@H](C(=O)N[C@@H](CCCNC(=N)N)C(=O)NCC(=O)N[C@@H](CCCNC(=N)N)C(=O)NCC(=O)O)C(C)C` [Example 15, N-epsilon31-(2-{2-[2-(2-{2-[2-((S)-3-Carboxy-3-{[1-(19-carboxy-nonadecanoyl)piperidine-4-carbonyl]amino}propionylamino)ethoxy]ethoxy}acetylamino)ethoxy]ethoxy}acetyl)[Aib8,Glu22,Arg26,Lys31,Arg34]GLP-1-(7-37)] (H-H[Aib]EGTFTSDVSSYLEEQAAREFIAK([AEEA-AEEA-βAsp-Inp-C20 diacid])LVRGRG-OH), the pEC50 is 6.52 to 6.82. Same read-out and setting: to `CC[C@H](C)[C@H](NC(=O)[C@H](Cc1ccccc1)NC(=O)[C@H](CCC(=O)O)NC(=O)[C@H](CCCNC(=N)N)NC(=O)[C@H](C)NC(=O)[C@H](C)NC(=O)[C@H](CCC(N)=O)NC(=O)[C@H](CCC(=O)O)NC(=O)[C@H](CCC(=O)O)NC(=O)[C@H](CC(C)C)NC(=O)[C@H](Cc1ccc(O)cc1)NC(=O)[C@H](CO)NC(=O)[C@H](CO)NC(=O)[C@@H](NC(=O)[C@H](CC(=O)O)NC(=O)[C@H](CO)NC(=O)[C@@H](NC(=O)[C@H](Cc1ccccc1)NC(=O)[C@@H](NC(=O)CNC(=O)[C@H](CCC(=O)O)NC(=O)C(C)(C)NC(=O)[C@@H](N)Cc1c[nH]cn1)[C@@H](C)O)[C@@H](C)O)C(C)C)C(=O)N[C@@H](CCC(=O)O)C(=O)N[C@@H](Cc1c[nH]c2ccccc12)C(=O)N[C@@H](CC(C)C)C(=O)N[C@H](C(=O)N[C@@H](CCCCN)C(=O)NCC(=O)N[C@@H](CCCNC(=N)N)C(=O)N1CCC[C@H]1C(=O)N[C@@H](CCCCNC(=O)CCOCCOCCOCCOCCOCCOCCOCCOCCOCCOCCOCCOCCNC(=O)CC[C@H](NC(=O)CC[C@H](NC(=O)CCCNC(=O)CCCS(=O)(=O)NC(=O)CCCCCCCCCCCCCCCc1nnn[nH]1)C(=O)O)C(=O)O)C(=O)O)C(C)C` [Example 52] (H-H[Aib]EGTFTSDVSSYLEEQAAREFIEWLVKGRPK([PEG12-γGlu-γGlu-GABA-X1])-OH) belongs 6.10 to 6.52; to `CC[C@H](C)[C@H](NC(=O)[C@H](Cc1ccccc1)NC(=O)[C@H](CCC(=O)O)NC(=O)[C@H](CCCNC(=N)N)NC(=O)[C@H](C)NC(=O)[C@H](C)NC(=O)[C@H](CCC(N)=O)NC(=O)CNC(=O)[C@H](CCC(=O)O)NC(=O)[C@H](CCCCNC(=O)COCCOCCNC(=O)COCCOCCNC(=O)C[C@@H](NC(=O)C1CCN(C(=O)CCCCCCCCCCCCCCCCC(=O)O)CC1)C(=O)O)NC(=O)[C@H](Cc1ccc(O)cc1)NC(=O)[C@H](CO)NC(=O)[C@H](CO)NC(=O)[C@@H](NC(=O)[C@H](CC(=O)O)NC(=O)[C@H](CO)NC(=O)[C@@H](NC(=O)[C@H](Cc1ccc2ccccc2c1)NC(=O)[C@@H](NC(=O)CNC(=O)[C@H](CCC(=O)O)NC(=O)C(C)(C)NC(=O)[C@@H](N)Cc1c[nH]cn1)[C@@H](C)O)[C@@H](C)O)C(C)C)C(=O)N[C@@H](CCC(=O)O)C(=O)N[C@@H](Cc1c[nH]c2ccccc12)C(=O)N[C@@H](CC(C)C)C(=O)N[C@H](C(=O)N[C@@H](CCCCN)C(=O)NCC(=O)N[C@@H](CCCNC(=N)N)C(=O)NCC(N)=O)C(C)C` [Example 13, N-ε^20({2-[2-(2-{2-[2-((R)-3-carboxy-3-{[1-(17-carboxyheptadecanoyl)piperidine-4-carbonyl]amino}propionylamino)ethoxy]ethoxy}acetylamino)ethoxy]ethoxy}acetyl) [Aib^8,Lys^20,Arg^26,2-Naphtylalanine^12, Glu^30]GLP-1-(7-37)amide] (H-H[Aib]EGT[2Nal]TSDVSSYK([AEEA-AEEA-d(βAsp)-Inp-C18 diacid])EGQAAREFIEWLVKGRG-NH2; N-terminus assumed), 6.52 to 6.82.

`CC[C@H](C)[C@H](NC(=O)[C@H](Cc1ccccc1)NC(=O)[C@H](CCC(=O)O)NC(=O)[C@H](CCCNC(=N)N)NC(=O)[C@H](C)NC(=O)[C@H](C)NC(=O)[C@H](CCCCNC(=O)COCCOCCNC(=O)COCCOCCNC(=O)C[C@@H](NC(=O)C1CCN(C(=O)CCCCCCCCCCCCCCCCC(=O)O)CC1)C(=O)O)NC(=O)CNC(=O)[C@H](CCC(=O)O)NC(=O)[C@H](CC(C)C)NC(=O)[C@H](Cc1ccc(O)cc1)NC(=O)[C@H](CO)NC(=O)[C@H](CO)NC(=O)[C@@H](NC(=O)[C@H](CC(=O)O)NC(=O)[C@H](CO)NC(=O)[C@@H](NC(=O)[C@H](Cc1ccccc1)NC(=O)[C@@H](NC(=O)CNC(=O)[C@H](CCC(=O)O)NC(=O)C(C)(C)NC(=O)[C@@H](N)Cc1c[nH]cn1)[C@@H](C)O)[C@@H](C)O)C(C)C)C(=O)N[C@@H](C)C(=O)N[C@@H](Cc1c[nH]c2ccccc12)C(=O)N[C@@H](CC(C)C)C(=O)N[C@H](C(=O)N[C@@H](CCCNC(=N)N)C(=O)NCC(=O)N[C@@H](CCCNC(=N)N)C(=O)NCC(=O)O)C(C)C` [Example 5] (H-H[Aib]EGTFTSDVSSYLEGK([AEEA-AEEA-d(βAsp)-Inp-C18 diacid])AAREFIAWLVRGRG-OH) had a pEC50 of 6.10 to 6.52. Consider `CC[C@H](C)[C@H](NC(=O)[C@H](Cc1ccccc1)NC(=O)[C@H](CCC(=O)O)NC(=O)[C@H](CCCNC(=N)N)NC(=O)[C@H](C)NC(=O)[C@H](C)NC(=O)[C@H](CCC(N)=O)NC(=O)CNC(=O)[C@H](CCC(=O)O)NC(=O)[C@H](CC(C)C)NC(=O)[C@H](Cc1ccc(O)cc1)NC(=O)[C@H](CO)NC(=O)[C@H](CO)NC(=O)[C@@H](NC(=O)[C@H](CC(=O)O)NC(=O)[C@H](CO)NC(=O)[C@@H](NC(=O)[C@H](Cc1ccccc1)NC(=O)[C@@H](NC(=O)CNC(=O)[C@H](CCC(=O)O)NC(=O)[C@H](C)NC(=O)CCc1cnc[nH]1)[C@@H](C)O)[C@@H](C)O)C(C)C)C(=O)N[C@@H](C)C(=O)N[C@@H](Cc1c[nH]c2ccccc12)C(=O)N[C@@H](CC(C)C)C(=O)N[C@H](C(=O)N[C@@H](CCCNC(=N)N)C(=O)NCC(=O)N[C@@H](CCCNC(=N)N)C(=O)NCC(=O)N[C@@H](CCCCNC(=O)COCCOCCNC(=O)COCCOCCNC(=O)CC[C@H](NC(=O)[C@H]1CC[C@H](CNC(=O)CCCCCCCCCCCCCCCCCCC(=O)O)CC1)C(=O)O)C(N)=O)C(C)C` [Example 28], for which the pEC50 was under 5.70.

Still in this data set, the particulars now being: human, biotinylated human serum albumin on streptavidin-SPA beads, pH 7.4.
`CC[C@H](C)[C@H](NC(=O)[C@H](Cc1ccccc1)NC(=O)[C@H](CCC(=O)O)NC(=O)[C@H](CCCNC(=N)N)NC(=O)[C@H](C)NC(=O)[C@H](C)NC(=O)[C@H](CCC(N)=O)NC(=O)CNC(=O)[C@H](CCC(=O)O)NC(=O)[C@H](CC(C)C)NC(=O)[C@H](Cc1ccc(O)cc1)NC(=O)[C@H](CO)NC(=O)[C@H](CO)NC(=O)[C@@H](NC(=O)[C@H](CC(=O)O)NC(=O)[C@H](CO)NC(=O)[C@@H](NC(=O)[C@H](Cc1ccccc1)NC(=O)[C@@H](NC(=O)CNC(=O)[C@H](CCC(=O)O)NC(=O)[C@H](C)NC(=O)CCc1c[nH]cn1)[C@@H](C)O)[C@@H](C)O)C(C)C)C(=O)N[C@@H](C)C(=O)N[C@@H](Cc1c[nH]c2ccccc12)C(=O)N[C@@H](CC(C)C)C(=O)N[C@H](C(=O)N[C@@H](CCCNC(=N)N)C(=O)NCC(=O)N[C@@H](CCCNC(=N)N)C(=O)N[C@@H](CCCCNC(=O)COCCOCCNC(=O)CC[C@H](NC(=O)CC[C@H](NC(=O)CCCCCCCCCCCNC(=O)CCCS(=O)(=O)NC(=O)CCCCCCCCCCCCCCCc1nnn[nH]1)C(=O)O)C(=O)O)C(=O)O)C(C)C` [Example 65, N-epsilon37-[2-(2-{2-[(S)-4-Carboxy-4-((S)-4-carboxy-4-{12-[4-(16-(1H-tetrazol-5-yl)hexadecanoylsulfamoyl)butyrylamino]dodecanoylamino}butyrylamino)butyrylamino]ethoxy}ethoxy)acetyl][DesaminoHis7,Arg26,Arg34,Lys37]GLP-1-(7-37)] showed an EC50 at 20 h of 1 to 100 nM.

The compound `CC[C@H](C)[C@H](NC(=O)[C@H](Cc1ccccc1)NC(=O)[C@H](CCC(=O)O)NC(=O)[C@H](CCCCNC(=O)COCCOCCNC(=O)CC[C@H](NC(=O)CC[C@H](NC(=O)CCCCCNC(=O)CCCS(=O)(=O)NC(=O)CCCCCCCCCCCCCCCc1nnn[nH]1)C(=O)O)C(=O)O)NC(=O)[C@H](C)NC(=O)[C@H](C)NC(=O)[C@H](CCC(N)=O)NC(=O)CNC(=O)[C@H](CCC(=O)O)NC(=O)[C@H](CC(C)C)NC(=O)[C@H](Cc1ccc(O)cc1)NC(=O)[C@H](CO)NC(=O)[C@H](CO)NC(=O)[C@@H](NC(=O)[C@H](CC(=O)O)NC(=O)[C@H](CO)NC(=O)[C@@H](NC(=O)[C@H](Cc1ccccc1)NC(=O)[C@@H](NC(=O)CNC(=O)[C@H](CCC(=O)O)NC(=O)C(C)(C)NC(=O)[C@@H](N)Cc1c[nH]cn1)[C@@H](C)O)[C@@H](C)O)C(C)C)C(=O)N[C@@H](C)C(=O)N[C@@H](Cc1c[nH]c2ccccc12)C(=O)N[C@@H](CC(C)C)C(=O)N[C@H](C(=O)N[C@@H](CCCNC(=N)N)C(=O)O)C(C)C` [Example 38, N-epsilon26-[2-(2-{2-[(S)-4-Carboxy-4-((S)-4-carboxy-4-{6-[4-(16-(1H-tetrazol-5-yl)hexadecanoylsulfamoyl)butyrylamino]hexanoylamino}butyrylamino)butyrylamino]ethoxy}ethoxy)acetyl][Aib8,Arg34]GLP-1-(7-34)] came in with an EC50 at 20 h of 1 to 100 nM.
